Test results reported in ChEMBL document CHEMBL1201862, “PubChem BioAssay data set” (2004).
Activity calls are given as the source filed them.

How the values were obtained:
[1] = Counterscreen for activators of the function of SWI/SNF related, matrix associated, actin dependent regulator of chromatin, subfamily a, member 2 (SMARCA2, BRM): Luminescence-based cell-based high throughput dose response assay to identify non-selective compounds using the VP16 reporter assay.; assay type: functional
[2] = system: HeLa; test: HeLa cell cytotoxicity, dose response, cytotoxicity control, 24 h, cherry-picked samples (AID 504726); assay type: functional, cell-based; details: Homo sapiens;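 note: potency for cytotoxicity as loss of luminescence signal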
[3] = molecular target: ORF 73 (Human herpesvirus 8, UniProt O40947); test: inhibitors of C-LANA binding to LBS DNA, dose response, biochemical, fluorescence polarization, cherry-picked samples (AID 504725); set-up: species or system Human gammaherpesvirus 8;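 note: fluorescence polarization of a labeled DNA duplex reporting LANA DNA binding; potency is for inhibitors that block LANA binding to the DNA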
[4] = molecular target: T1, Rac GTPase-activating protein 1 (Homo sapiens, UniProt Q9H0H5); test: MgcRacGAP GTPase-activating activity inhibitors, confirmation, biochemical, ADP Hunter fluorescence, primary and confirmatory (AID 624330); assay type: functional
T1 sequence (Q9H0H5 whole entry): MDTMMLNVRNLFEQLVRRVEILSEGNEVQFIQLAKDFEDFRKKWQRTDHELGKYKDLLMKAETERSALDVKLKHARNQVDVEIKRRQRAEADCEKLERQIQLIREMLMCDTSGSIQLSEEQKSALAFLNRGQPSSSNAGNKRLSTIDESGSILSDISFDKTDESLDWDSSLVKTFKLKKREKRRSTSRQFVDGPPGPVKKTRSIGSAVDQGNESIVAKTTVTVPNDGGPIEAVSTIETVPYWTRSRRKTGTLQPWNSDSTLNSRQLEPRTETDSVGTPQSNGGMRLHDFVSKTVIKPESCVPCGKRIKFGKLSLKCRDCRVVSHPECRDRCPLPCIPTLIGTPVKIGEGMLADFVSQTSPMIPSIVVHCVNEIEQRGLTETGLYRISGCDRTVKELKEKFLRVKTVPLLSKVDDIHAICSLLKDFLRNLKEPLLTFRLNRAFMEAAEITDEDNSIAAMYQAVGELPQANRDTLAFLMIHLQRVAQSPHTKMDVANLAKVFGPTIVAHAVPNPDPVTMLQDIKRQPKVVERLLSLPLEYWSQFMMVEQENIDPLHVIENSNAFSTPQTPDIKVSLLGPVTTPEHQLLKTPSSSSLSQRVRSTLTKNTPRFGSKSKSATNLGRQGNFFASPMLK

[5] = molecular target: SWI/SNF-related matrix-associated actin-dependent regulator of chromatin subfamily A member 2 (Homo sapiens, UniProt P51531); test: Luminescence-based cell-based high throughput dose response assay to identify activators of the function of SWI/SNF related, matrix associated, actin dependent regulator of chromatin, subfamily a, member 2 (SMARCA2, BRM).; assay type: functional
[6] = molecular target: T2, Histone-lysine N-methyltransferase NSD2 (Homo sapiens, UniProt O96028); assay type: biochemical
T2 sequence (O96028 whole entry): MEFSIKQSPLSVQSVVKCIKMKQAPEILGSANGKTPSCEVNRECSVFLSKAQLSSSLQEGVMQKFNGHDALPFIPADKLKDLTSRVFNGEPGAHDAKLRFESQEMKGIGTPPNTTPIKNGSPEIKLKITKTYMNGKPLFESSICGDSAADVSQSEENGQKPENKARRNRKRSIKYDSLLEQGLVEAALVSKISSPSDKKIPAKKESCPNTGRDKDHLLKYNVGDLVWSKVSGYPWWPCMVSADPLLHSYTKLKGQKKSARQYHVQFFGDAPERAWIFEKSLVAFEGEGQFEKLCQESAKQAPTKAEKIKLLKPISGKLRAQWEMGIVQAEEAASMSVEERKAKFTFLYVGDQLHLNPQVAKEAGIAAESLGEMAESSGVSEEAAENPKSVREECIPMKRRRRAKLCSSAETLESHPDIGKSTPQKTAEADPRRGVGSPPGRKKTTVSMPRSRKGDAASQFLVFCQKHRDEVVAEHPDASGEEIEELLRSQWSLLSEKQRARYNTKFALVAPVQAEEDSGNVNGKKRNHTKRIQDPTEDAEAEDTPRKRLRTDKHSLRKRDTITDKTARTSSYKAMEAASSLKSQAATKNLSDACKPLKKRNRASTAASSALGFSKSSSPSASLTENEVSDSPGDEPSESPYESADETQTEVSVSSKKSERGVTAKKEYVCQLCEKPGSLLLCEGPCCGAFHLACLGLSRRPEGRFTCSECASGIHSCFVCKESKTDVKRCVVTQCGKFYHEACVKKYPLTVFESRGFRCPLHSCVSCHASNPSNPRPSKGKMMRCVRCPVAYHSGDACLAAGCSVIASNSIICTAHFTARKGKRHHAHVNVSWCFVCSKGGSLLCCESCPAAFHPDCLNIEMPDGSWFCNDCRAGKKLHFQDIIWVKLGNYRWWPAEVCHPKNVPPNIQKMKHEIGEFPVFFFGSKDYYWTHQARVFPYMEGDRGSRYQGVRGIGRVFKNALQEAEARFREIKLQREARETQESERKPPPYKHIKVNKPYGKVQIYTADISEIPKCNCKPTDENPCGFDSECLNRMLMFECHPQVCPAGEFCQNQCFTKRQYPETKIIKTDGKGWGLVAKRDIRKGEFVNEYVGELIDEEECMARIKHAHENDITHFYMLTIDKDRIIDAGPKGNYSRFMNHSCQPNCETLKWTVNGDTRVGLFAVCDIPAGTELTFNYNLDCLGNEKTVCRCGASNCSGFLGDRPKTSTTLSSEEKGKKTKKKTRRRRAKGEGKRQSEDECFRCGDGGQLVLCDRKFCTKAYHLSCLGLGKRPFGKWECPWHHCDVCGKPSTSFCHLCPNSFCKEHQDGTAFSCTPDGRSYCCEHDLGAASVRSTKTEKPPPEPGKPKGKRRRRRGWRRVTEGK

[7] = molecular target: Tyrosyl-DNA phosphodiesterase 2 (Homo sapiens, UniProt O95551); test: human TDP2 enzyme inhibitors, dose response, biochemical, epi absorbance, IC50 (AID 743297)
[8] = molecular target: Dual specificity tyrosine-phosphorylation-regulated kinase 1A (Rattus norvegicus, UniProt Q63470); assay type: biochemical, Homo sapiens
[9] = HeLa cell cytotoxicity, dose response, cytotoxicity control for MgcRacGAP inhibitor project (AID 624300); assay type: functional
[10] = system: Streptococcus sp. 'group A'; test: growth inhibition of control SK(-) GAS strain, dose response, counter-screen for streptokinase expression inhibitor project, luminescence, kanamycin, BacTiterGlo, confirmation (AID 1900); assay type: functional, organism-based
[11] = molecular target: T3, Calpain-2 catalytic subunit (Sus scrofa, UniProt P43367); test: pig calpain II inhibitor potency, dose response, biochemical, fluorogenic peptide substrate (AID 1420); assay type: functional
T3 sequence (P43367 whole entry): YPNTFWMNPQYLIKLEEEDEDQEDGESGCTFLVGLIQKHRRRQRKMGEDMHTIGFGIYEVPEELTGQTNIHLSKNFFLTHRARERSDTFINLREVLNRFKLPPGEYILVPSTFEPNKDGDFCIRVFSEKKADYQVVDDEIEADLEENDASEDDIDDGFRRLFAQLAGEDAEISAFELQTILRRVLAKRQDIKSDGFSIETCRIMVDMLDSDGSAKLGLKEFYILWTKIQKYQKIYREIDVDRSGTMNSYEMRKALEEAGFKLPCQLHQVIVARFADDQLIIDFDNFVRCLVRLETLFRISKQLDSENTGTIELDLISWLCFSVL

[12] = molecular target: Major prion protein (Homo sapiens, UniProt P04156); assay type: functional, cell-based
[13] = system: Streptococcus; test: Group A Streptococcus viability loss, dose response, counter-screen for streptokinase expression inhibitor project, luminescence, BacTiterGlo (AID 1915); assay type: functional, organism-based;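 note: potency for reduction of bacterial viability or growth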
[14] = cells
[15] = molecular target: T4, Streptokinase A (Streptococcus pyogenes serotype M1, UniProt P10520); test: S. pyogenes streptokinase expression inhibitors, potency, dose response, plasminogen activation absorbance, OD405 (AID 1914); assay type: functional, Streptococcus pyogenes M1 GAS;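 note: secreted streptokinase activity via plasminogen activation per viability signal from cell pellet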
T4 sequence (P10520 whole entry): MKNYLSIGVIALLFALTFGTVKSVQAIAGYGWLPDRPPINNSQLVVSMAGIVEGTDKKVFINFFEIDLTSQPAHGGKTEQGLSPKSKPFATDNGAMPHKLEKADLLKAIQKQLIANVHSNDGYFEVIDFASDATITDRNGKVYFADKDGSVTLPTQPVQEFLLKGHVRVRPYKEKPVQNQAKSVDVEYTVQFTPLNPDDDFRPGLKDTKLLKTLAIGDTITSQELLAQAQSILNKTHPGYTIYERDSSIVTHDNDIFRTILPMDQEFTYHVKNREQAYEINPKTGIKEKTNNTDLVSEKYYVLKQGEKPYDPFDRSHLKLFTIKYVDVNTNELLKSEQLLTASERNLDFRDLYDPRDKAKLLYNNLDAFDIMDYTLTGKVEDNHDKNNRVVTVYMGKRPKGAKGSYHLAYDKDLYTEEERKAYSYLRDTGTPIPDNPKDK

[16] = HEp-2 cell cytotoxicity, dose response, cytotoxicity control for RSV inhibitor project, HTS (AID 2410); assay type: functional; details: human respiratory syncytial virus
[17] = cytotoxicity in OV-90 ovarian cancer cells, dose response, PAX8 inhibitor project, cell-based, plate reader, dry powder, SA8 (AID 743149); assay type: functional
[18] = PAX5 activity inhibitors, dose response, selectivity assay for PAX8 inhibitor project, cell-based, plate reader, dry powder samples (AID 743047); assay type: functional;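 note: HEK293 cells carrying a Pax5 driven CD19 promoter luciferase reporter; potency of inhibitors that lower reporter luminescence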
[19] = PAX2 cell-based inhibition, dose response, selectivity assay for PAX8 inhibitor project, plate reader, dry powder samples (AID 743048); assay type: functional;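 note: HEK293 cells carrying a WT1 promoter luciferase reporter driven by expressed Pax2; potency is for inhibition of Pax2 driven reporter signal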
[20] = molecular target: Protein disulfide-isomerase (Homo sapiens, UniProt P07237); test: PDI inhibitors, insulin turbidity readout, confirmation, biochemical, dry powder samples, set 2 (AID 652146)

With `CCN(CC)CCCNc1ccc2ncn3c4ccc(O)cc4c(=O)c1c23` the EC50 [1] was > 91.2 µM (inactive), the AC50 [2] was > 350 µM (inactive) and the AC50 [3] was 2.05 µM (active). The IC50 [4] was 56.4 µM (active), the EC50 [5] was 20.5 µM (inactive) and the AC50 [6] was 12.7 µM (active). For the same compound, the IC50 [7] was > 128 µM (inactive), the AC50 [8] was 2.77 µM (active) and the CC50 [9] was 89.3 µM (active).
With `Cc1nc(-c2ccc(S(=O)(=O)Nc3ccc(Br)cc3Cl)s2)cs1` the EC50 [10] was 3.04 µM (active), the IC50 [11] was 12.2 µM (active) and the IC50 [12] was 12.5 µM (inactive). For the same compound, the EC50 [13] was 11.9 µM (active), the IC50 [14] was > 138 µM (inactive) and the EC50 [15] was 3.98 µM (active). The CC50 [16] was 16.6 µM (active).
In the case of `COc1cccc(C#Cc2ccc([C@@H]3[C@@H](C#N)N(C(=O)C4CCCC4)[C@@H]3CO)cc2)c1`, the AC50 [17] is reported as > 70 µM (inactive), the AC50 [18] is reported as 30.7 µM (active) and the AC50 [19] is reported as 31.6 µM (active).
With `C=CCOc1ccc(CN2CCC(CCOc3ccccc3)(C(=O)O)CC2)cc1Cl` the AC50 [20] was 20 µM (active).
